Test results from patent US20060079453A1, “Hla binding peptides and their uses” (priority 2002, published 2006).
Like-named read-outs stand apart in the source and are kept apart here. No end group written: not given here.

Tests used:
HLA-B*1801 = HLA-B*1801 (Homo sapiens, UniProt P01889, A329T/A93T/A95T/C349S/D201E/D54G/D98Y/E176V/E187T/E204Q/E69T/K202T/Q94N/R155S/R180L/S121R/V306I/Y140S/Y195H/Y33H/Y91S); assay: biochemical; type: binding
HLA-B*4002 = HLA-B*4002 (Homo sapiens, UniProt P01889, A65T/A93T/A95T/D138N/D201E/D98Y/E176V/E204Q/E69K/K202T/N87E/Q56L/Q94N/R180L/S48T/Y33H/Y91S); assay: biochemical; type: binding
HLA-B*4001 = HLA-B*4001 (Homo sapiens, UniProt P01889, A65T/A93T/A95T/D138N/D98Y/E176V/E69K/N87E/Q56L/Q94N/R180L/S121R/S35A/S48T/T167S/V36M/W171L/Y33H/Y91S); assay: biochemical; type: binding
HLA-B*4501 = HLA-B*4501 (Homo sapiens, UniProt P01889, A329T/A65T/A93T/A95T/C349S/D138N/D201E/D98Y/E176V/E187L/E204Q/E69K/H137Y/K202T/L119W/N87E/Q56L/Q94N/R155S/R180D/S121R/S35A/S48T/V127L/V306I/V36M/W191S/Y140L/Y33H/Y91S); assay: biochemical; type: binding
HLA-A*2402 = HLA-A*2402 (Homo sapiens, UniProt P04439, D101N/D140Y/D185E/E176V/E190D/F33S/G103R/G107R/I119L/I121M/I306V/K335N/L105A/L180Q/L300P/N151K/N90K/Q86E/Q94H/R106L/R138H/R89G/T104I/T345S/V100E/W191G/Y123F); assay: MHC molecular binding / Capture assay, IC50: A*2402
HLA-A*2301 = HLA-A*2301 (Homo sapiens, UniProt P04439, D101N/D140Y/D185E/E176V/E190D/F33S/G103R/G107R/H175R/I119L/I121M/I306V/K168Q/K335N/L105A/L300P/N151K/N90K/P307H/Q86E/Q94H/R106L/R138H/R89G/T104I/T345S/V100E/W191G/Y123F); assay: biochemical; type: binding
HLA-A*3002 = HLA-A*3002 (Homo sapiens, UniProt P04439, D101N/D140H/D185E/E176R/F33S/G80R/H175R/K168Q/Q94H/R138E/R41S/V100E); assay: biochemical; type: binding
HLA-A*2902 = HLA-A*2902 (Homo sapiens, UniProt P04439, A270S/D101N/D185E/E176V/E277Q/E87Q/F33T/G231S/H175R/I121M/I218V/I322F/K168Q/L300P/L318F/M331R/P208A/P217A/Q86L/T323A/T345S/V100A/V358M); assay: MHC molecular binding / Capture assay, IC50: A*2902
HLA-B*4402 = HLA-B*4402 (Homo sapiens, UniProt P01889, A223V/A65T/A93T/A95T/D201E/D98Y/E176V/E187L/E204Q/E69K/G107R/H137Y/K202T/L105A/L119I/N104T/N87E/Q56L/Q94N/R106L/R155S/R180D/S101N/S121R/S35A/S48T/T118I/V36M/W191S/Y140D/Y91S); assay: biochemical; type: binding
[1] = Binding affinity to A*3002 (expressed as an IC50)
[2] = Binding affinity to A*2902 (expressed as an IC50)

Molecule | IC50 (HLA-A*2402) [nM] | IC50 (HLA-A*2301) [nM] | IC50 (HLA-A*3002) [nM] | IC50 (HLA-A*2902) [nM] | other results
AENLFVTVY |  |  |  |  | IC50 (HLA-B*1801): 29 nM; IC50 (HLA-B*4002): 334 nM; IC50 (HLA-B*4001): 970 nM; IC50 (HLA-B*4501): 232 nM
AENVWVTVY |  |  |  |  | IC50 (HLA-B*4002): 386 nM; IC50 (HLA-B*4001): 2240 nM; IC50 (HLA-B*4501): 737 nM
AENLWVTKY |  |  |  |  | IC50 (HLA-B*1801): 511 nM; IC50 (HLA-B*4002): 2000 nM; IC50 (HLA-B*4001): 1010 nM; IC50 (HLA-B*4501): 201 nM
AENFWVTVY |  |  |  |  | IC50 (HLA-B*4002): 542 nM; IC50 (HLA-B*4001): 1390 nM; IC50 (HLA-B*4501): 289 nM
LYPEPTDLF | 38 | 17 | 30700 | 1150 | 
VYDFVFADF | 9.9 | 2.2 | 3960 | 1230 | 
EYRHYQYSF | 21 | 2.3 | 430 | 13700 | 
AYKDLFVVY | 1550 | 905 | 1.3 | 639 | 
AEPAAEGVGA |  |  |  |  | IC50 (HLA-B*1801): > 8120 nM; IC50 (HLA-B*4402): > 22600 nM; IC50 (HLA-B*4001): 4120 nM; IC50 (HLA-B*4501): 104 nM
NYSVYGNTF | 28 | 29 | 2560 | 9120 | 
AEPAAEGVGAV |  |  |  |  | IC50 (HLA-B*1801): > 8610 nM; IC50 (HLA-B*4402): > 23900 nM; IC50 (HLA-B*4001): 20400 nM; IC50 (HLA-B*4501): 1500 nM
SYKSSKRDKF | 256 | 797 |  |  | IC50 (HLA-A*3002; [1]): 88 nM; IC50 (HLA-A*2902; [2]): 12600 nM
FYSRIRELRF | 11 | 1.6 | 12600 | 83 | 
AFKDLFVVF | 294 | 6.8 | 829 | 3050 | 
CC(C)C[C@H](NC(=O)[C@H](Cc1c[nH]c2ccccc12)NC(=O)[C@@H]1CCCN1C(=O)[C@H](Cc1ccccc1)NC(=O)[C@H](CO)NC(=O)[C@@H](NC(=O)[C@H](Cc1ccc(O)cc1)NC(=O)[C@@H](N)CCCCN)[C@@H](C)O)C(=O)O | 208 | 177 |  | > 172000 | IC50 (HLA-A*3002; [1]): 346 nM; IC50 (HLA-A*2902; [2]): > 172000 nM
LYGDTLEQTF | 91 | 24 | 42000 | 40900 | 
MFVPKYFEL | 266 | 11 |  |  | IC50 (HLA-A*3002; A*3002 binding affinity (IC50)): 8560 nM; IC50 (HLA-A*2902; A*2902 binding affinity (IC50)): 2560 nM
LFYSKVRKF | 2010 | 277 | 632 | 11200 | 
TENLWVTVY |  |  |  |  | IC50 (HLA-B*4001; B*4001): 14000 nM; IC50 (HLA-B*4501; B*4501): 5300 nM
AENLWVTVG |  |  |  |  | IC50 (HLA-B*1801): 39700 nM; IC50 (HLA-B*4002): 47 nM; IC50 (HLA-B*4001): 861 nM; IC50 (HLA-B*4501): 35 nM
VYRHCEYIL | 2200 | 64 |  |  | IC50 (HLA-A*3002; A*3002 binding affinity (IC50)): 3330 nM; IC50 (HLA-A*2902; A*2902 binding affinity (IC50)): 118000 nM
VYEFAFKDLF | 15 | 1.7 | 2040 | 1970 | 
RFHSIAGQF | 28 | 2.9 | 1.2 | 481 | 

Molecule | IC50 (HLA-A*2402) [nM] | IC50 (HLA-A*2301) [nM] | IC50 (HLA-A*3002) [nM] | IC50 (HLA-A*2902) [nM] | other results
VYCKTVLEF | 50 | 4.7 | 1140 | 610 | 
CEKCSKPCARV |  |  |  |  | IC50 (HLA-B*4501; read-out: B*4501): 1560 nM
VYNFACTEF | 14 | 2.1 | 784 | 774 | 
LYYLFNQHI | 33 | 1.4 |  |  | IC50 (HLA-A*3002; A*3002 binding affinity (IC50)): 11000 nM; IC50 (HLA-A*2902; A*2902 binding affinity (IC50)): 20100 nM
LYVYHTQGY | 7140 | 6090 | 258 | 216 | 
TFGWCFKF | 3420 | 462 | > 10100 | 4450 | 
KFLFTDLRF | 12 | 0.74 | 152 | 44 | 
RYHSIAGQY | 3170 | 1900 | 1.4 | 544 | 
LYYSKVRKY | 21900 | 2740 | 28 | 1450 | 
AENLWVTVH |  |  |  |  | IC50 (HLA-B*4002): 151 nM; IC50 (HLA-B*4001): 493 nM; IC50 (HLA-B*4501): 120 nM
AENLWVTVS |  |  |  |  | IC50 (HLA-B*1801): 25700 nM; IC50 (HLA-B*4402): 4220 nM; IC50 (HLA-B*4501): 34 nM
KYLFTDLRI | 108 | 1.9 | 339 | 78600 | 
IEDPPYNSL |  |  |  |  | IC50 (HLA-B*1801): 35500 nM; IC50 (HLA-B*4002): 688 nM; IC50 (HLA-B*4001): 16 nM; IC50 (HLA-B*4501): 18700 nM
AEKLWVTVY |  |  |  |  | IC50 (HLA-B*4402): 168 nM; IC50 (HLA-B*4001): 18300 nM; IC50 (HLA-B*4501): 219 nM
RFPLTFGF | 178 | 124 | 13500 | 12800 | 
VYREGNPFGF | 197 | 91 | 21900 | 11100 | 
NYACTELKL | 1740 | 131 | 49100 | 77800 | 
KYSKSSIVGW | 4060 | 491 | > 34500 | > 69400 | 
AFADLTVVF | 203 | 30 | 137 | 779 | 
RFLSKISEF | 58 | 2.5 | 201 | 40100 | 
AYRDLCIVY | 2090 | 1480 | 66 | 7120 | 
VFADLRIVF | 23 | 2.5 | 24100 | 87 | 
AENNWVTVY |  |  |  |  | IC50 (HLA-B*4501): 99 nM
